“And” between values parts separate entries of the source, which are not always exact repeats. Identical values can stand only once. Like-named read-outs stand apart in the source and are kept apart here.
Legend:
hERG = hERG (Homo sapiens, UniProt Q12809); assay: IonWorks Quattro hERG screen (AstraZeneca, Q)
CaV1.2 = CaV1.2 (Homo sapiens, UniProt Q13936); assay: IonWorks Quattro CaV1.2 screen (AstraZeneca, Q); conditions: IonWorks Quattro; −log10 of IC50 in Molar; Hill n = 1; 0.0 = pIC50 ≤ 0 fitted
[1] = Plasma concentration (Cmax) during the TQT study, total and calculated free; format: in vivo, human
KCNQ1/MinK = KCNQ1/MinK (Homo sapiens, UniProt P51787); assay: IonWorks Quattro KCNQ1/MinK screen (AstraZeneca, Q); conditions: −log10 of IC50 in Molar, Hill n = 1, 0.0 = pIC50 ≤ 0 fitted
[2] = ref Gintant (2011); cited from earlier work
NaV1.5 [3] = molecular target: T1, NaV1.5 (Homo sapiens, UniProt Q14524); assay: IonWorks Quattro NaV1.5 screen (AstraZeneca, Q)
[4] = cited from earlier work
NaV1.5 [5] = molecular target: T1, NaV1.5; assay: Second IonWorks Quattro NaV1.5 screen (GSK, Q2)
Kv4.3/KChIP2.2 = molecular target: T2, Kv4.3/KChIP2.2 (Homo sapiens, UniProt Q9UK17); assay: IonWorks Quattro Kv4.3/KChIP2.2 screen (AstraZeneca, Q); format: cell-based; conditions: IonWorks Quattro; −log10 of IC50 in Molar; Hill n = 1; 0.0 = pIC50 ≤ 0 fitted
T2 sequence (Q9UK17 1-655): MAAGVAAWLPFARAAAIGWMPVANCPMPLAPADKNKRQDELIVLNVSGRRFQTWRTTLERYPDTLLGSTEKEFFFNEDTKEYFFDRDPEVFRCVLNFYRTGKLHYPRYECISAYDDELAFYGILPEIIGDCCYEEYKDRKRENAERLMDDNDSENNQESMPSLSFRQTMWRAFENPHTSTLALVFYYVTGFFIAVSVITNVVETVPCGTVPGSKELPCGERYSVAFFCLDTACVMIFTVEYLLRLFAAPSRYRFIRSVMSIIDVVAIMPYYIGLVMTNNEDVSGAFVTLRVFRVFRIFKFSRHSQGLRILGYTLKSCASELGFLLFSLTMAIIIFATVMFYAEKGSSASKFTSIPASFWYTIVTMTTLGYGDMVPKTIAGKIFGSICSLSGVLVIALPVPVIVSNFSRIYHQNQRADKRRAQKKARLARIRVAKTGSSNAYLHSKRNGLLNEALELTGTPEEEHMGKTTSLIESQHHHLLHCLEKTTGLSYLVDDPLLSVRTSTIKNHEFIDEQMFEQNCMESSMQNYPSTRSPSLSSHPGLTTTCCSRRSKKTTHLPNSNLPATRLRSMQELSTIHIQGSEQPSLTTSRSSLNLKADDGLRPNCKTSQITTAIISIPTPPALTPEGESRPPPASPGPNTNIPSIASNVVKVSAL
T2 sequence (Q9NS61 1-270 partner): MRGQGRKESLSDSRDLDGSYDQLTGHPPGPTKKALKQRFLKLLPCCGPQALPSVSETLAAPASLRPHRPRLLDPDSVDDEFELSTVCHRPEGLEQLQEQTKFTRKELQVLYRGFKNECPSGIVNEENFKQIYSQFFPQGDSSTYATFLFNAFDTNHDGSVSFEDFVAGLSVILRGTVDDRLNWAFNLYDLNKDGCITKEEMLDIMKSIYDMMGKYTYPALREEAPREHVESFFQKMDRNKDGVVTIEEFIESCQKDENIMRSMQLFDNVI

[6] = test system: QT interval on the body surface ECG; conditions: ref Gintant (2011); cited from earlier work
[7] = IonWorks Quattro, −log10 of IC50 in Molar, Hill n = 1, 0.0 = pIC50 ≤ 0 fitted
[8] = Cmax high, calculated from ng/mL and molecular weight
[9] = Cmax high, calculated with PPB and molecular weight
[10] = Cmax low, calculated from ng/mL and molecular weight
[11] = Cmax low, calculated with PPB and molecular weight

SMILES | IC50 (hERG) [mM] | CaV1.2 pIC50 (Q) (CaV1.2) | KCNQ1 pIC50 (Q) (KCNQ1/MinK) | PPB (percent plasma binding) [2] | NaV1.5 pIC50 (Q) (NaV1.5 [3]; [7]) | NaV1.5 pIC50 (Q2) (NaV1.5 [5]) | Kv4.3 pIC50 (Q) (Kv4.3/KChIP2.2) | NaV1.5 pIC50 (Q) (NaV1.5 [3]) | Cmax TOTAL [1, 8] [nM] | Cmax FREE ([1]; Cmax high, calculated with PPB) [ng/mL] | Cmax FREE [1, 9] [nM] | Cmax TOTAL [1, 10] [nM] | Cmax FREE ([1]; Cmax low, calculated with PPB) [ng/mL] | Cmax FREE [1, 11] [nM] | Cmax TOTAL ([4]; Cmax high, ref Gintant (2011)) [ng/mL] | Cmax TOTAL ([4]; Cmax low, ref Gintant (2011)) [ng/mL] | other results
C[C@H]1CN(C[C@H](Cc2ccccc2)C(=O)NCC(=O)O)CC[C@@]1(C)c1cccc(O)c1 [Alvimopan] | 63.1 | 5.3 | 4.3 | 70% | 3.6 | – | – | – | – | – | – | – | – | – | – | – | Cmax FREE ([1]; 12mg Capsule): 2.97 ng/mL and 6.996 nM; Cmax TOTAL ([1]; 12mg Capsule): 23.3199 nM; Free plasma concentration ([1]; 12mg Capsule): 6.996 nM; Cmax FREE ([1]; 24 extrapolate): 5.94 ng/mL and 13.9919 nM; Cmax TOTAL ([1]; 24 extrapolate): 19.8 ng/mL and 46.6398 nM; Free plasma concentration ([1]; 24 extrapolate): 13.99 nM; Cmax TOTAL ([4]; 12mg Capsule, ref Gintant (2011)): 9.9 ng/mL
CO[C@H]1C[C@@H]2CC[C@@H](C)[C@@](O)(O2)C(=O)C(=O)N2CCCC[C@H]2C(=O)O[C@H]([C@H](C)C[C@@H]2CC[C@@H](OCCO)[C@H](OC)C2)CC(=O)[C@H](C)/C=C(\C)[C@@H](O)[C@@H](OC)C(=O)[C@H](C)C[C@H](C)/C=C/C=C/C=C/1C [Everolimus] | – | – | 4.0 | 74% | – | 3.7 | 2.0 | 3.2 | – | – | – | – | – | – | – | – | Cmax FREE ([1]; Cmax 50mg/kg): 65.26 ng/mL; Cmax TOTAL ([1]; Cmax 50mg/kg): 261.943 nM; Cmax TOTAL ([4]; Cmax 50mg/kg, ref http://journals.lww.com/jto/pages/articleviewer.aspx?year=2011&issue=12000&article=00023&type=abstract Table 6): 251 ng/mL
C[C@H](Cc1cc2c(c(C(N)=O)c1)N(CCCO)CC2)NCCOc1ccccc1OCC(F)(F)F [Silodosin] | – | 3.1 | 3.6 | 95% PPB | 4.2 | – | 3.5 | – | 290.598 | 7.2 | 14.530 | 85.767 | 2.125 | 4.288 | 144 | 42.5 | IC50 at 3 min (hERG; human, CHO K1 cells stably transfected with human ERG): 0.0251 mM; Free plasma concentration ([1]; Cmax high): 14.53 nM; Free plasma concentration ([1]; Cmax low): 4.288 nM
N[C@@H](CC(=O)N1CCn2c(nnc2C(F)(F)F)C1)Cc1cc(F)c(F)cc1F [Sitagliptin] | – | 1.0 | 3.5 | 30% PPB | – | 3.2 | – | 3.1 | – | 3827.6 | 9397.17 | – | 348.6 | 855.851 | 5468 | 498 | TQT study outcome in words (COMMENTS) [6]: Minimal effects at supratherapeutic concentrations
Cc1cn([C@@H]2C[C@@H](O)[C@H](CO)O2)c(=O)[nH]c1=O [Telbivudine] | 5.01 | – | 3.6 | 3.3% | – | – | – | 2.5 | 27246.8 | 6382.2 | 26347.7 | 9082.28 | 2127.4 | 8782.56 | 6600 | 2200 | –

Source: PMC4266452, “Prediction of Thorough QT study results using action potential simulations based on ion channel screens” (Journal of Pharmacological and Toxicological Methods, 2014)
